# Source: PMC5218480 (PLoS ONE, 2017)
# Test system: MV-4-11 cells
# Assay: Gene expression microarray analysis (Affymetrix PrimeView) and GSEA
# Type: cell-based, human
# Parameters: RFU PODN (11730768_x_at) / Fold change /veh PODN (11730768_x_at) / RFU LINC00158 (11744669_a_at) / Fold change /veh LINC00158 (11744669_a_at) / RFU DUSP10 (11751237_a_at) / Fold change /veh DUSP10 (11751237_a_at) / RFU ID3 (11757404_x_at) / Fold change /veh ID3 (11757404_x_at) / RFU PLEKHG5 (11737974_s_at) / Fold change /veh PLEKHG5 (11737974_s_at) / RFU LRRC4B (11730491_at) / Fold change /veh LRRC4B (11730491_at) / RFU GIMAP4 (11747438_a_at) / Fold change /veh GIMAP4 (11747438_a_at) / RFU KRT8 (11758183_x_at) / Fold change /veh KRT8 (11758183_x_at) / RFU CNN1 (11734310_a_at) / Fold change /veh CNN1 (11734310_a_at) / RFU VPS37D (11726825_at) / Fold change /veh VPS37D (11726825_at) / RFU C10orf10 (11716522_x_at) / Fold change /veh C10orf10 (11716522_x_at) / RFU KIR2DL2 /// KIR2DL4 /// KIR2DL5A /// KIR2DL5B /// KIR2DS1 /// KIR2DS2 /// KIR2DS3 /// KIR2DS4 /// KIR3DL3 /// KIR3DL3 /// KIR3DS1 (11738374_at) / Fold change /veh KIR2DL2 /// KIR2DL4 /// KIR2DL5A /// KIR2DL5B /// KIR2DS1 /// KIR2DS2 /// KIR2DS3 /// KIR2DS4 /// KIR3DL3 /// KIR3DL3 /// KIR3DS1 (11738374_at) / RFU C1QL1 (11718748_at) / Fold change /veh C1QL1 (11718748_at) / RFU TMPRSS4 (11747572_a_at) / Fold change /veh TMPRSS4 (11747572_a_at) / RFU HAMP (11756126_x_at) / Fold change /veh HAMP (11756126_x_at) / RFU RNFT2 (11725882_a_at) / Fold change /veh RNFT2 (11725882_a_at) / RFU NR4A2 (11747474_a_at) / Fold change /veh NR4A2 (11747474_a_at) / RFU ABCC12 (11746883_a_at) / Fold change /veh ABCC12 (11746883_a_at) / RFU TMEM136 (11760407_x_at) / Fold change /veh TMEM136 (11760407_x_at) / RFU CLDN22 /// WWC2 (11732394_at) / Fold change /veh CLDN22 /// WWC2 (11732394_at) / RFU HLA-DPB1 (11760878_x_at) / Fold change /veh HLA-DPB1 (11760878_x_at) / RFU SPINT1 (11716480_a_at) / Fold change /veh SPINT1 (11716480_a_at) / RFU GAP43 (11754022_s_at) / Fold change /veh GAP43 (11754022_s_at) / RFU A4GNT (11735810_at) / Fold change /veh A4GNT (11735810_at) / RFU PRB3 (11715151_x_at) / Fold change /veh PRB3 (11715151_x_at) / RFU TUBB4B (11761932_at) / Fold change /veh TUBB4B (11761932_at) / RFU CAPN14 (11732068_a_at) / Fold change /veh CAPN14 (11732068_a_at) / RFU TMCC2 (11721928_a_at) / Fold change /veh TMCC2 (11721928_a_at) / RFU IRGQ (11745062_a_at) / Fold change /veh IRGQ (11745062_a_at) / RFU FAM174B (11720279_a_at) / Fold change /veh FAM174B (11720279_a_at) / RFU TMPRSS4 (11748680_a_at) / Fold change /veh TMPRSS4 (11748680_a_at) / RFU FAM212B (11763350_a_at) / Fold change /veh FAM212B (11763350_a_at) / RFU PLEKHG5 (11743358_a_at) / Fold change /veh PLEKHG5 (11743358_a_at) / RFU ZSCAN30 (11745921_a_at) / Fold change /veh ZSCAN30 (11745921_a_at) / RFU CMKLR1 (11741424_a_at) / Fold change /veh CMKLR1 (11741424_a_at) / RFU LOC101060620 /// MAPK8IP1 (11723275_at) / Fold change /veh LOC101060620 /// MAPK8IP1 (11723275_at) / RFU SPTSSB (11747773_x_at) / Fold change /veh SPTSSB (11747773_x_at) / RFU PRSS12 (11739890_at) / Fold change /veh PRSS12 (11739890_at) / RFU BIN1 (11741810_x_at) / Fold change /veh BIN1 (11741810_x_at) / RFU WNT11 (11732464_a_at) / Fold change /veh WNT11 (11732464_a_at) / RFU C10orf10 (11716521_a_at) / Fold change /veh C10orf10 (11716521_a_at) / RFU C5orf56 (11738089_at) / Fold change /veh C5orf56 (11738089_at) / RFU CYB561 (11721691_x_at) / Fold change /veh CYB561 (11721691_x_at) / RFU ANKRD19P (11752326_a_at) / Fold change /veh ANKRD19P (11752326_a_at) / RFU OR2T12 /// OR2T33 /// OR2T8 (11738714_s_at) / Fold change /veh OR2T12 /// OR2T33 /// OR2T8 (11738714_s_at) / RFU VCAN (11748164_a_at) / Fold change /veh VCAN (11748164_a_at) / RFU JSRP1 (11732532_at) / Fold change /veh JSRP1 (11732532_at) / RFU KRTAP10-11 (11738290_x_at) / Fold change /veh KRTAP10-11 (11738290_x_at) / RFU MYO3A (11730013_a_at) / Fold change /veh MYO3A (11730013_a_at) / RFU EBF3 (11725865_a_at) / Fold change /veh EBF3 (11725865_a_at) / RFU CAMK2N1 (11719241_x_at) / Fold change /veh CAMK2N1 (11719241_x_at) / RFU C5orf56 (11738088_a_at) / Fold change /veh C5orf56 (11738088_a_at) / RFU OLFML3 (11715873_a_at) / Fold change /veh OLFML3 (11715873_a_at) / RFU LOC100653217 /// NTM (11731650_a_at) / Fold change /veh LOC100653217 /// NTM (11731650_a_at) / RFU MAPK11 (11762145_a_at) / Fold change /veh MAPK11 (11762145_a_at) / RFU FIZ1 (11724087_x_at) / Fold change /veh FIZ1 (11724087_x_at) / RFU OASL (11726364_x_at) / Fold change /veh OASL (11726364_x_at) / RFU SOX15 (11748057_x_at) / Fold change /veh SOX15 (11748057_x_at) / RFU CD79A (11719716_a_at) / Fold change /veh CD79A (11719716_a_at) / RFU HIST1H1D (11736915_at) / Fold change /veh HIST1H1D (11736915_at) / RFU CASKIN2 (11723855_a_at) / Fold change /veh CASKIN2 (11723855_a_at) / RFU LOC730098 (11760151_x_at) / Fold change /veh LOC730098 (11760151_x_at) / RFU OR4N2 (11742367_at) / Fold change /veh OR4N2 (11742367_at) / RFU PRRT2 (11749266_a_at) / Fold change /veh PRRT2 (11749266_a_at) / RFU SNX32 (11753110_a_at) / Fold change /veh SNX32 (11753110_a_at) / RFU CDHR5 (11726645_a_at) / Fold change /veh CDHR5 (11726645_a_at) / RFU RCAN1 (11760418_a_at) / Fold change /veh RCAN1 (11760418_a_at) / RFU FAM167A (11723789_a_at) / Fold change /veh FAM167A (11723789_a_at) / RFU FAM26E (11764081_at) / Fold change /veh FAM26E (11764081_at) / RFU ISYNA1 (11749810_s_at) / Fold change /veh ISYNA1 (11749810_s_at) / RFU ACY1 (11761880_at) / Fold change /veh ACY1 (11761880_at) / RFU 11764098_at / Fold change /veh 11764098_at / RFU SAMD14 (11745864_x_at) / Fold change /veh SAMD14 (11745864_x_at) / RFU NPB (11741838_a_at) / Fold change /veh NPB (11741838_a_at) / RFU TMPRSS6 (11731388_a_at) / Fold change /veh TMPRSS6 (11731388_a_at) / RFU KRTAP10-2 (11738614_at) / Fold change /veh KRTAP10-2 (11738614_at) / RFU ARHGAP8 /// PRR5-ARHGAP8 (11727945_x_at) / Fold change /veh ARHGAP8 /// PRR5-ARHGAP8 (11727945_x_at) / RFU KRTAP5-7 /// NADSYN1 (11734609_at) / Fold change /veh KRTAP5-7 /// NADSYN1 (11734609_at) / RFU RASL12 (11751679_a_at) / Fold change /veh RASL12 (11751679_a_at) / RFU CDKN2B (11736163_a_at) / Fold change /veh CDKN2B (11736163_a_at) / RFU PRF1 (11729649_at) / Fold change /veh PRF1 (11729649_at) / RFU, ZNF638 /// ZNF638-IT1 / Fold change vs veh, ZNF638 /// ZNF638-IT1 / RFU, PANK3 / Fold change vs veh, PANK3 / RFU, SH3YL1 / Fold change vs veh, SH3YL1 / RFU, ZEB2 / Fold change vs veh, ZEB2 / RFU, NRIP1 / Fold change vs veh, NRIP1 / RFU, PTTG1IP / Fold change vs veh, PTTG1IP / RFU, CAPN2 / Fold change vs veh, CAPN2 / RFU, MED14 / Fold change vs veh, MED14 / RFU, SNORA58 / Fold change vs veh, SNORA58 / RFU, C1orf63 / Fold change vs veh, C1orf63 / RFU, LRRFIP1 / Fold change vs veh, LRRFIP1 / RFU, NDUFAF7 / Fold change vs veh, NDUFAF7 / RFU, SLC12A2 / Fold change vs veh, SLC12A2 / RFU, IBTK / Fold change vs veh, IBTK / RFU, ESF1 / Fold change vs veh, ESF1 / Fold change vs veh, TMEM50B / RFU, TAOK1 / Fold change vs veh, TAOK1 / RFU, ACBD3 / Fold change vs veh, ACBD3 / RFU, TMA16 / Fold change vs veh, TMA16 / RFU, RWDD3 / Fold change vs veh, RWDD3 / RFU, BCAT1 / Fold change vs veh, BCAT1 / RFU, EDEM3 / Fold change vs veh, EDEM3 / RFU, TMEM33 / Fold change vs veh, TMEM33 / RFU, WDR75 / Fold change vs veh, WDR75 / RFU, AHCTF1 / Fold change vs veh, AHCTF1 / RFU, TFRC / Fold change vs veh, TFRC / RFU, ZDHHC17 / Fold change vs veh, ZDHHC17 / RFU, NOM1 / Fold change vs veh, NOM1 / RFU, ARL8B / Fold change vs veh, ARL8B / RFU, ZBTB11 / Fold change vs veh, ZBTB11 / RFU, TAMM41 / Fold change vs veh, TAMM41 / RFU, KIAA1704 /// LOC100996395 / Fold change vs veh, KIAA1704 /// LOC100996395 / RFU, ING1 / Fold change vs veh, ING1 / RFU, TRMT61B / Fold change vs veh, TRMT61B / RFU, FUBP3 / Fold change vs veh, FUBP3 / RFU, TP53 / Fold change vs veh, TP53 / RFU, TNKS2 / Fold change vs veh, TNKS2 / RFU, ZFP14 / Fold change vs veh, ZFP14 / RFU, ACTR2 / Fold change vs veh, ACTR2 / RFU, PPP3R1 / Fold change vs veh, PPP3R1 / RFU, PIK3R1 / Fold change vs veh, PIK3R1 / RFU, HNRNPA1 / Fold change vs veh, HNRNPA1 / RFU, RNF170 / Fold change vs veh, RNF170 / RFU, ZNF28 / Fold change vs veh, ZNF28 / RFU, RNGTT / Fold change vs veh, RNGTT / RFU, OGT / Fold change vs veh, OGT / RFU, BRD1 / Fold change vs veh, BRD1 / RFU, MARS / Fold change vs veh, MARS / RFU, ZNF655 / Fold change vs veh, ZNF655 / RFU, FAHD1 / Fold change vs veh, FAHD1 / RFU, BDP1 / Fold change vs veh, BDP1 / RFU, LRRCC1 / Fold change vs veh, LRRCC1 / RFU, ARID1A / Fold change vs veh, ARID1A / RFU, ZNF146 / Fold change vs veh, ZNF146 / RFU, ZNF330 / Fold change vs veh, ZNF330 / RFU, GPN3 / Fold change vs veh, GPN3 / RFU, C9orf123 / Fold change vs veh, C9orf123 / RFU, N4BP2L2 / Fold change vs veh, N4BP2L2 / RFU, ARFIP1 / Fold change vs veh, ARFIP1 / RFU, FAM179B / Fold change vs veh, FAM179B / RFU, BCL10 / Fold change vs veh, BCL10 / RFU, UHRF1BP1L / Fold change vs veh, UHRF1BP1L / RFU, BET1 / Fold change vs veh, BET1 / RFU, CNOT2 / Fold change vs veh, CNOT2 / RFU, ZNF268 / Fold change vs veh, ZNF268 / Fold change vs veh, ZNF507 / RFU, DGCR2 / Fold change vs veh, DGCR2 / RFU, WDSUB1 / Fold change vs veh, WDSUB1 / Fold change vs veh, HSP90B1 /// MIR3652 / RFU, ADSS / Fold change vs veh, ADSS / RFU, GK / Fold change vs veh, GK / RFU, ZNF148 / Fold change vs veh, ZNF148 / RFU, TAF9 / Fold change vs veh, TAF9 / RFU, SLC1A5 / Fold change vs veh, SLC1A5 / RFU, SLMO2 / Fold change vs veh, SLMO2 / RFU, ABCC4 / Fold change vs veh, ABCC4 / RFU, LOC101060439 /// RAP1B / Fold change vs veh, LOC101060439 /// RAP1B / RFU, RFX7 / Fold change vs veh, RFX7 / RFU, GTPBP10 / Fold change vs veh, GTPBP10 / RFU, CNEP1R1 / Fold change vs veh, CNEP1R1 / RFU, BIVM-ERCC5 /// ERCC5 / Fold change vs veh, BIVM-ERCC5 /// ERCC5 / RFU, ILF3 / Fold change vs veh, ILF3 / RFU 11762660_at / Fold change /veh 11762660_at / RFU VCAN (11757783_s_at) / Fold change /veh VCAN (11757783_s_at) / RFU DDX43 (11728927_at) / Fold change /veh DDX43 (11728927_at) / RFU KRT8 (11758188_x_at) / Fold change /veh KRT8 (11758188_x_at) / RFU NKD1 (11759106_at) / Fold change /veh NKD1 (11759106_at) / RFU SRD5A1 (11742802_a_at) / Fold change /veh SRD5A1 (11742802_a_at) / RFU TPSAB1 /// TPSB2 (11721975_s_at) / Fold change /veh TPSAB1 /// TPSB2 (11721975_s_at) / RFU GSTM3 (11746129_a_at) / Fold change /veh GSTM3 (11746129_a_at) / RFU IL23R (11737362_x_at) / Fold change /veh IL23R (11737362_x_at) / RFU TMEM51 (11727254_a_at) / Fold change /veh TMEM51 (11727254_a_at) / RFU PIWIL2 (11732686_x_at) / Fold change /veh PIWIL2 (11732686_x_at) / RFU ORM1 (11744905_x_at) / Fold change /veh ORM1 (11744905_x_at) / RFU CCDC152 (11743942_at) / Fold change /veh CCDC152 (11743942_at) / RFU ECM1 (11717891_a_at) / Fold change /veh ECM1 (11717891_a_at) / RFU IL23R (11748794_a_at) / Fold change /veh IL23R (11748794_a_at) / RFU TNFAIP8L3 (11732012_x_at) / Fold change /veh TNFAIP8L3 (11732012_x_at) / RFU MBOAT4 (11741988_at) / Fold change /veh MBOAT4 (11741988_at) / RFU 11764193_at / Fold change /veh 11764193_at / RFU TMEM53 (11763286_at) / Fold change /veh TMEM53 (11763286_at) / RFU MAGEB2 (11727129_at) / Fold change /veh MAGEB2 (11727129_at) / RFU TMEM200A (11744735_a_at) / Fold change /veh TMEM200A (11744735_a_at) / RFU CCDC152 (11751479_a_at) / Fold change /veh CCDC152 (11751479_a_at) / RFU FAM211A (11726209_a_at) / Fold change /veh FAM211A (11726209_a_at) / RFU RGS16 (11746705_a_at) / Fold change /veh RGS16 (11746705_a_at) / RFU VCAN (11755009_s_at) / Fold change /veh VCAN (11755009_s_at) / RFU RHOB (11743442_s_at) / Fold change /veh RHOB (11743442_s_at) / RFU RGS16 (11720943_a_at) / Fold change /veh RGS16 (11720943_a_at) / RFU RGS16 (11720944_at) / Fold change /veh RGS16 (11720944_at) / RFU, VPS4B / Fold change vs veh, VPS4B / RFU, CREB1 / Fold change vs veh, CREB1 / RFU, DNAJC13 / Fold change vs veh, DNAJC13 / RFU, GNAQ / Fold change vs veh, GNAQ / RFU, CDK5R1 / Fold change vs veh, CDK5R1 / RFU, ZRANB3 / Fold change vs veh, ZRANB3 / RFU, CUL4A / Fold change vs veh, CUL4A / RFU, CCNY / Fold change vs veh, CCNY / RFU, UFL1 / Fold change vs veh, UFL1 / RFU, COG3 / Fold change vs veh, COG3 / RFU, DIAPH2 / Fold change vs veh, DIAPH2 / RFU, SKA2 / Fold change vs veh, SKA2 / RFU, AFF3 / Fold change vs veh, AFF3 / RFU, LMF1 / Fold change vs veh, LMF1 / RFU, IPO11 / Fold change vs veh, IPO11 / RFU, DFFB / Fold change vs veh, DFFB / RFU, FOXP1 / Fold change vs veh, FOXP1 / RFU, CARD8 / Fold change vs veh, CARD8 / RFU, STRN3 / Fold change vs veh, STRN3 / RFU, ADK / Fold change vs veh, ADK / RFU, RASSF2 / Fold change vs veh, RASSF2 / RFU, WIPF1 / Fold change vs veh, WIPF1 / RFU, LARP1B / Fold change vs veh, LARP1B / RFU, RASA1 / Fold change vs veh, RASA1 / RFU, RB1 / Fold change vs veh, RB1 / RFU, PPFIA1 / Fold change vs veh, PPFIA1 / RFU, MAT2A / Fold change vs veh, MAT2A / RFU, CCT5 / Fold change vs veh, CCT5 / RFU, WDR92 / Fold change vs veh, WDR92 / RFU, CUX1 / Fold change vs veh, CUX1 / RFU, TTC7A / Fold change vs veh, TTC7A / RFU, TMEM135 / Fold change vs veh, TMEM135 / RFU, DEPTOR / Fold change vs veh, DEPTOR / RFU, CPM / Fold change vs veh, CPM / RFU, DNAJB6 / Fold change vs veh, DNAJB6 / RFU, CACNA2D3 / Fold change vs veh, CACNA2D3 / RFU, DTX4 / Fold change vs veh, DTX4 / RFU, TFCP2 / Fold change vs veh, TFCP2 / RFU, GMCL1 /// GMCL1P1 / Fold change vs veh, GMCL1 /// GMCL1P1 / RFU, AEBP2 / Fold change vs veh, AEBP2 / RFU, SNHG1 /// SNORD22 /// SNORD25 /// SNORD26 /// SNORD27 /// SNORD28 /// SNORD29 /// SNORD31 / Fold change vs veh, SNHG1 /// SNORD22 /// SNORD25 /// SNORD26 /// SNORD27 /// SNORD28 /// SNORD29 /// SNORD31 / Fold change (Aza/veh), C12orf56 (ProbeSet 11735607_a_at) / Fold change (ACY-1035/veh), C12orf56 (ProbeSet 11735607_a_at) / Fold change (Aza/veh), FGFR1OP (ProbeSet 11751329_s_at) / Fold change (ACY-1035/veh), FGFR1OP (ProbeSet 11751329_s_at) / Fold change (Aza/veh), VPS36 (ProbeSet 11739960_a_at) / Fold change (ACY-1035/veh), VPS36 (ProbeSet 11739960_a_at) / RFU SYPL1 (11715823_x_at) / Fold change /veh SYPL1 (11715823_x_at) / RFU IGFBP7 (11715501_s_at) / Fold change /veh IGFBP7 (11715501_s_at) / RFU REEP3 (11722064_at) / Fold change /veh REEP3 (11722064_at) / RFU IGLL1 (11728026_x_at) / Fold change /veh IGLL1 (11728026_x_at): dose or concentration left out as unconfirmed
# Details: MV-4-11 cells, 48 hours
smiles,measurement,value
Nc1ccc(-c2cccs2)cc1NC(=O)c1ccc2c(c1)cc(C1CC1)n2CCN1CCOCC1 [ACY-1035],RFU CDHR5 (11726645_a_at),42.85 RFU
